Values joined by “and” are separate entries in the source; they are usually repeats but may differ in a detail not shown here. Equal values may be shown once.
Experiments:
[1] = target: T1, HRas^G12V (Homo sapiens (Human), UniProt P01112, G12V); assay: 19F DLB (ligand-observed 19F NMR) score; assay type: binding; design: scale not given here
Procedure, shortened: (§1)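 In the T2-CPMG experiment, echo spacing was 1 ms and total delays ranged over eight values from 1 to 800 ms. Both scores come from 600 MHz NMR of 50 μM HRas G12V mixed with fragment pools at 240 μM each, in phosphate buffer pH 7.4 with NaCl, MgCl2 and TCEP-d16. Ligand-observed 19F spectra were recorded with 1H decoupling, 64 scans and a 5 s relaxation delay.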

[2] = target: T1, HRas^G12V; assay: Dissociation constant by NMR (1H/15N Fast-HSQC, 1H 1D protein-observed); assay type: binding; details: HRas^G12V; read-out: NMR Kd
Method: All NMR experiments were collected using 3 mm NMR tubes on a 600 MHz Bruker Avance III spectrometer equipped with a QCI helium cryoprobe and a SampleJet sample changer. The buffer used for NMR experiments was 25 mM sodium phosphate pH 7.4, 150 mM NaCl, 5 mM MgCl2, 1 mM TCEP-d16, 10% D2O. Data were processed using Bruker TopSpin.
(§2) ^1H/^15N Fast-HSQC experiments (Mori et al., Journal of Magnetic Resonance, Series B, Volume 108, Issue 1, July 1995, Pages 94-98) were recorded at a protein concentration of 50-100 μM.
(§3) Dissociation constants were obtained by monitoring changes in chemical shifts as a function of ligand concentration. The changes in chemical shifts (d) were calculated according to the following equation (Williamson, Progress in Nuclear Magnetic Resonance Spectroscopy, Volume 73, August 2013, Pages 1-16): d=√(1/2[δ_H^2+[…]]), Where δ are the changes in chemical shift in ppm for ^1H and ^15N and the correction factor (α) was set at 0.15.
(§4) ^1H 1D protein-observed experiments were recorded with 15-50 μM protein. The standard Bruker 1D ^1H sequence with excitation sculpting (zgesgp) was employed. A relaxation delay of 1 s was employed in order to use 256 scans while still keeping experimental time fairly short. Changes in protein chemical shift or peak intensity in the methyl region were monitored against compound concentration.

[3] = target: T1, HRas^G12V; assay: Overall binding/activity in the various assays (NMR consensus binding)
Procedure, shortened: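 Fragments (240 µM each, pooled) screened against 50 µM HRas^G12V in 25 mM sodium phosphate pH 7.4, 150 mM NaCl, 5 mM MgCl2, 1 mM TCEP-d16 by 1H-decoupled 1D 19F NMR. Hits confirmed by ligand- and protein-observed 1D 1H, STD and T2-CPMG (aggregation check); consensus binding ranked, with 15N HSQC for sites and Kd.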

[4] = target: T1, HRas^G12V; assay: 19F T2-CPMG NMR score; assay type: binding
Procedure, shortened: as §1

[5] = target: wild type HRAS (Homo sapiens (Human), UniProt P01112); assay: NMR Kd, wild type HRAS; assay type: binding
Method: as §2, §3, §4
The activity of compounds of the invention regarding wild type HRAS was measured in the same as in Example 80. The results obtained with the compounds in the various assays described above are depicted in Table 2.

[6] = target: T2, KRAS^G12D-GDP (Homo sapiens (Human), UniProt P01116, G12D); assay: 19F DLB score, KRAS^G12D-GDP; assay type: binding; design: scale not given here
Method: (§5) Since the fragment library was curated using phosphate buffer, 25 mM sodium phosphate pH 7.4, 150 mM NaCl, 5 mM MgCl2, 1 mM TCEP-d16, 10% D2O Fresh TCEP was used for experiments. Screening was performed using ^1H-decoupled 1D ^19F experiment Bruker experiment (zgfhigqn.2) with 64 scans and a relaxation delay of 5 seconds. 50 μM HRas^G12V and 240 μM of each fragment in pools (mixtures) were used.
(§6) Hit confirmation was performed using the same ^19F experiment as the screen. Ligand-observed 1D ^1H, protein-observed 1D ^1H, ^1H T2-CPMG as well as Saturation Transfer Difference (STD) experiments were also run on the same samples. Ligand-observed 1D ^1H was run using the standard Bruker sequence with excitation sculpting (zgesgp) with a relaxation delay of 10 seconds and 16 scans per spectrum. Protein-observed 1D ^1H was performed using the same sequence with a relaxation delay of 1 second and 256 scans in order to increase the signal-to-noise of the protein resonances, while keeping the experimental time relatively short. The ^1H T2-CPMG experiment employed a modified version of the Bruker 1D ^1H zgesgp experiment with the addition of a CPMG pulse train after the first 90° excitation pulse. Total duration for each spin echo was fixed at 1 ms (τ=500 μs), while the number of echoes in the pulse train was varied according to the total time (T). The number of scans for each spectrum was 4 and eight delay times were run on each sample, ranging from 1 ms to 800 ms.
(§7) The activity of compounds of the invention regarding KRAS^G12D-GDP was measured in the same as in Example 80. The results obtained with the compounds in the various assays described above are depicted in Table 23.

[7] = target: T2, KRAS^G12D-GDP; assay: 19F T2-CPMG score, KRAS^G12D-GDP; assay type: binding
Method: as §5, §6, §7

T1 sequence (P01112 1-166 G12V): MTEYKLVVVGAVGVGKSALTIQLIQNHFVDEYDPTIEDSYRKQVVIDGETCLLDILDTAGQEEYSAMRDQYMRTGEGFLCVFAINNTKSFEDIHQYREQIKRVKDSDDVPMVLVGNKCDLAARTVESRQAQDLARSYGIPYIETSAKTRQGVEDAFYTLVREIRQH
T2 sequence (P01116-2 other isoform, or with tags, fused parts or gaps G12D): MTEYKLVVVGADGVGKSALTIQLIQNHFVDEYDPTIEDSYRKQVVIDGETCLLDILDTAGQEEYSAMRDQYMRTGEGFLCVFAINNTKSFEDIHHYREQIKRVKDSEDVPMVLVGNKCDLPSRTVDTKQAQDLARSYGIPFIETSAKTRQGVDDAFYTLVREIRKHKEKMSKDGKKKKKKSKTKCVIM
Chain of wild type HRAS (P01112 whole entry): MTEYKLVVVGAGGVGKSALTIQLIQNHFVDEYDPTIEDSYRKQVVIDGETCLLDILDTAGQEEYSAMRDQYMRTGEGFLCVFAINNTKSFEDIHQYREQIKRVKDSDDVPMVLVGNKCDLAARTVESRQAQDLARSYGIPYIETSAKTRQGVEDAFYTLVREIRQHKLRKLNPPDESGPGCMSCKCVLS

## CN(C)Cc1c[nH]c2cc(F)ccc12 [FS-1255, reference compound]
[1]
  19F DLB Score: 1.77 and 1.7 and 1.65
[2]
  Kd: 9.83 to 12 mM
[3]
  Binding to HRas^G12V (in words): weak binding affinity
[4]
  19F T2-CPMG Score: 5.22
[5]
  Kd: 6.07 mM
[6]
  19F DLB Score: 1.51
[7]
  19F T2-CPMG Score: 3.62
